Results taken from patent US9107879B1, “Methods of increasing the cytotoxicity of chemotherapeutic agents with multisubstrate inhibitors of histone, protein-lys, polyamine acetylation, and polyamine metabolism” (Vanderbilt University, priority 2010, dated 2015).

How the values were obtained:
[1] = system: H358 lung cancer cells; test: [3H]-thymidine incorporation DNA synthesis assay; assay type: cell-based; settings: for inhibition of DNA synthesis, single agent (FIG. 25): 1, 10 or 50 μM for 12 hours
Experimental: (§1) (A) Structures of 1a, and the acetylated side chain of a lysine residue within the polypeptide chain of a protein targeted by the acetylating enzyme (R1 and R2 are the main chain elements on both sides of the lysyl residue). (B) [^3H]-thymidine incorporation into DNA of H358 cells pulsed for 6 hrs at three different time points after the addition of increasing concentrations of 1a, i.e., at 6-12 hrs (12 hr curve), at 18-24 hours (24 hr curve), or at 42-48 hrs (48 hr curve). Incorporation is represented as a percentage relative to control (untreated) cells. (C) Cell cycle analysis of propidium iodide-stained cells harvested at various times after addition of 50 μM 1a. % of cells in G1, S, and G2 represents the average of two independent profiles. (D) Western analysis of histone H3 lysine 9 acetylation, histone H3 lysine 56 acetylation, histone H3 lysine 9 methylation, and total histone H3, before “c” or at the indicated times after addition of 50 μM 1a. Each lane represents 60 μg cellular protein.
Control cells were left untreated. […] Control cells were left untreated.
Cells were either labeled immediately before treatment (starting DNA synthesis rate), or subjected to the indicated treatments and then pulsed on successive days until day 4. DNA synthesis is represented as the percent of starting DNA synthesis rate. Viability was determined for each treatment condition 24 hours post-start of treatment by the trypan blue exclusion assay, with percentages of viable cells indicated to the right of the graph.
H358 cells (2,000/well) in 96-well plates were treated with 1, 10 or 50 μM of spd-1a, spd-2a, spd-3a, spm3, or spm2 for 12 hours. Triplicate wells of cells were pulsed 6 hours with 0.5 μCi [^3H]-thymidine (NEN, Boston Mass.) post-start of drug treatment, and harvested onto filter paper using a Brandel Harvester and subjected to scintillation counting. Untreated cells were pulsed 0-6 hrs to establish the initial rate of incorporation.
Cells were plated in 96-well plates (2000 cells per well to insure conditions for exponential growth for untreated cells over the time course of the experiment) and exposed to the following treatments: 1a (50 μM); camptothecin (Sigma, St Louis, Mo. 5 nM, 18 hours); cisplatin (Platinol, obtained through local pharmacies, 2 μM, 1 hour 15 minutes), 5-fluorouracil (5FU, Adrucil™, obtained through local pharmacies, 2 μM, 1 hour 15 minutes), Taxotere (provided by the late Dr. Pierre Potier, 5 nM, 18 hours). UVC treatment (40 J/m^2) using a Stratalinker™, Stratagene, La Jolla, Calif.) was carried using medium lacking phenol red. At 0-6 hr, 18-24 hr (day 1), 42-48 hr […], 66-72 hr (day 3), and 90-96 hr (day 4) post-start of treatment, triplicate wells were incubated with 0.5 μCi [^3H]-thymidine (NEN, Boston Mass.), harvested onto filter paper, and subjected to scintillation counting. Trypan blue exclusion assays for cell membrane integrity were carried out as known in the art.
The present inventors used [^3H]-thymidine incorporation assays to examine DNA synthesis in H358 lung cancer cells in the presence of varying concentrations of 1a. Cells were pulsed for 6 hours with [^3H]-thymidine at three different time points after the addition of 1a (i.e., at 6-12 hours, at 18-24 hours, and at 42-48 hours). The incorporation of [^3H]-thymidine into DNA decreased with increasing concentrations of 1a at all three time points, with the maximal effect occurring with the 6-12 hour pulse (FIG. 2B).
We then used [^3H]-thymidine incorporation assays to examine DNA synthesis in H358 lung cancer cells in the presence of 1a alone, or together with an 18 hour exposure to the DNA damaging drug, camptothecin (CPT), a plant alkaloid from which an important class of topoisomerase I-targeted chemotherapeutic agents (Hycamtin [topotecan] and Camptosar [irinotecan]) has been derived (Garcia-Carbonero, et al, 2002, Clin Cancer Res 8: 641-61). […]

[2] = system: histone H3 lysine 9 acetylation in H358 cells; test: Western analysis of histone H3 lysine 9 acetylation/methylation; assay type: cell-based; settings: for suppression of histone H3K9 acetylation: 50 μM, 12 hours post start of treatment
Experimental: as §1
Each lane represents 175 μg cell lysate protein.
One 6 cm culture dish of H358 cells per treatment was used. Cells were treated with 50 μM spm-2, spm-3, or spd-3a for 12 hours. Histones were extracted from cells in 0.2M H2SO4 (as described in Furuta, T., et al (2003) J. Biol. Chem. 278: 20303-20312), followed by SDS-PAGE and Western blotting. Blots were probed with anti-acetyl histone H3-lysine 9 (Upstate Biotechnology, Inc.)
Cells were lysed by adding 1 mL of 0.2 M H2SO4. Histones were recovered as described in reference. SDS-PAGE/Western analysis was carried out as previously described using rabbit monoclonal antibody to total histone H3, rabbit polyclonal anti-trimethyl histone H3 (lysine 9), and anti-acetyl histone H3 (lysine 9). All antibodies were purchased from Upstate Biotechnology Inc. (Lake Placid, N.Y.).
In FIG. 2D, we carried out an immunoblot analysis of total histone H3, histone H3 acetylated on lysine 9 (H3-K9Ac), histone H3 acetylated on lysine 56 (H3-K56Ac) and histone H3 methylated on lysine 9 (H3-MeK9) in H358 cells, before treatment, and after 1, 12, 18, and 24 hours of treatment with 50 μM 1a. […] Acetylation levels are restored by 24 hours.
One 10-cm plate of H358 lung cancer cells (about 2×10^6 cells), grown in DMEM+10% Fetal bovine serum as described in reference, were treated for 24 hours with 50 μM1a inhibitor. Cells lysates were prepared as we have previously described (Lee C, et al., 2005, Cancer Res 65:9834-9842). Treated cells and untreated (control) cells were harvested by lysing in buffer containing 10 mM Hepes pH 7.5, 100 mM NaCl, 300 mM sucrose, 3 mM MgCl2, 1 mM EDTA, 1 mM DTT, 0.5% Triton X-100, 1 mM PMSF, protease inhibitor pellet (Roche) and analyzed on 10% SDS-PAGE gels, followed by Western immunoblot analysis of total histone H3, methylated histone H3 (methylated on lysine 9), and acetylated histone H3 (acetylated on lysine 9). […] Histone H3 methylation was not affected.

## CC[C@@]1(O)C(=O)OCc2c1cc1n(c2=O)Cc2cc3ccccc3nc2-1 [camptothecin]
[1]; 1a 50 μM, camptothecin 5 nM (18 or 24 h)
  effect on [3H]-thymidine incorporation, single agent: no detectable effect

## CC(=O)NCCSCC(=O)NCCCNCCCCNCCCN [spm-3]
[1]
  inhibition of DNA synthesis, single agent (FIG. 25): inhibit DNA synthesis
[2]
  suppression of histone H3K9 acetylation: suppress histone acetylation

## CC(=O)NCCSCC(=O)NCCCNCCCCN [3a]
[1]
  inhibition of DNA synthesis, single agent (FIG. 25): inhibit DNA synthesis
[1]; 3a + CPT 5 nM 18 hours, pulse from 42 hours
  suppression of DNA synthesis in combination with camptothecin: effective
[2]
  suppression of histone H3K9 acetylation: nearly complete ablation of histone H3K9 acetylation
[2]; listed as spd-3a
  suppression of histone H3K9 acetylation: suppress histone acetylation

## CC(C)(COP(=O)(O)OP(=O)(O)OC[C@H]1O[C@@H](n2cnc3c(N)ncnc32)[C@H](O)[C@@H]1OP(=O)(O)O)[C@@H](O)C(=O)NCCC(=O)NCCSCC(=O)NCCCNCCCCN [1a, spermidine[N1]-CoA]
[1]; 50 μM 1a + cisplatin 2 μM, UVC 40 J/m2 or 5FU 2 μM
  sensitization to cisplatin (CDDP), UVC irradiation and 5-FU in DNA synthesis assay: sensitized
[1]; Homo sapiens, NCI-H358, 50 μM 1a + 5 nM camptothecin (18 h), 48 hours post-initiation, read-out: [3H]-thymidine incorporation, % of control incorporation
  activity at 50 µM: < 20%
[1]; Homo sapiens, NCI-H358, 6-12 hour [3H]-thymidine pulse, read-out: IC50 for inhibition of DNA synthesis
  IC50: 50 to 100 µM
[2]; 50 μM 1a
  effect on histone H3 lysine 9 methylation: no effect
[2]; 50 μM 1a, within 1 hour
  histone H3 lysine 9 acetyl groups lost: over 50%
[2]; 50 μM 1a, within 12 hours
  histone H3 lysine 9 acetyl groups lost: ~98%
[2]; Example 1: 50 μM 1a, 24 hours, cell lysate
  histone H3 K9 acetyl groups lost: over 80%
